# According to patent US3980707A, “Methylamino derivative of 2-ethylindandione-1,3 and the hydrochloride thereof” (priority 1973, dated 1976):
# Where a name gives a salt, the structure may show the parent alone.
# What was measured:
# [1] = Solubility and hydrolysis in water; type: physicochemical; conditions: hydrochlorides
# [2] = Anticonvulsive activity and toxicity, general statements; type: in vivo; conditions: compared with the conventional anticonvulsants
# conditioned reflexes = experiment: Influence on rate of development of conditioned reflexes (learning); type: in vivo, white mice; conditions: for ET50 (medium time required for learning): confidence limits in parentheses, P=0.05
# Text: The influence of Metindione and Phenobarbital on learning has been studied on white mice.
# (confidence limits are put in parentheses; P=0.05).
# [3] = Acute toxicity (LD50, Table 1); parameters: species or system white rats and white mice; conditions: in vivo, ip; confidence limits in parentheses, P = 0.05; second ED50 column of Table 1
# electroshock = experiment: Thirty-day electroshock tests (habituation); type: in vivo; conditions: white mice
# [4] = tested on: seizures induced by an electroshock; experiment: Anticonvulsive effect in electroshock (intraperitoneal); type: in vivo, white rats and white mice
# Procedure: Anticonvulsive effect of Metindione in electroshock was studied on white rats and white mice on a comparison basis with the well known drug phenobarbital. Both preparations were administered by intraperitoneal injections. The results are summarized in Tabl. 1 (confidence limits are indicated in parentheses; P = 0.05).
# [5] = Extended every day administration / chronic toxicity; type: in vivo
smiles,measurement,setting,value
"CCC1(Nc2ccccc2)C(=O)c2ccccc2C1=O [2-aniline-2-ethylindandione-1,3 hydrochloride]",hydrolysis in water,[1],readily hydrolyzed in water
"CCC1(NC)C(=O)c2ccccc2C1=O [2-methylamino-2-ethylindandione-1,3 hydrochloride]",anticonvulsant index,[2],high anticonvulsant index
"CCC1(NC)C(=O)c2ccccc2C1=O [Metindione, 2-methylamino-2-ethylindandione-1,3 hydrochloride]",ET50 (medium time required for learning),conditioned reflexes; dose 1/2 of ED50 of anticonv. action,2.4(2.1+2.6) day
same,ET50 (medium time required for learning),conditioned reflexes; dose 1 x ED50 of anticonv. action,2.5(2.1+2.8) day
same,ET50 (medium time required for learning),conditioned reflexes; dose 2 x ED50 of anticonv. action,2.0(1.7+2.3) day
same,ET50 (medium time required for learning),conditioned reflexes; dose 4 x ED50 of anticonv. action,2.8(2.4+3.4) day
same,influence on rate of developing conditioned reflexes,"conditioned reflexes; mouse, in vivo",did not influence the rate of developing conditioned reflexes
same,LD50,[3],415 mg/kg
same,necessity to increase initial dose / habit forming reaction,electroshock,no necessity to increase the initial dose
same,ED50,"[4]; Rattus norvegicus, ip, electroshock, confidence limits in parentheses, P = 0.05",3.6 mg/kg
same,Protective Index (in ratio of LD50 /ED50),"[4]; electroshock, i.p., confidence limits in parentheses, P = 0.05",115 (89+149)
same,protective index higher than that of phenobarbital,[4]; in vivo,14 times
same,anticonvulsive effect stronger than that of phenobarbital,"[4]; seizures induced by an electroshock, relative to phenobarbital",~4 times
same,toxic effect,"[5]; extended every day administration, doses 15 times higher than the therapeutical average",no toxic effect
same,acute and chronic toxicity,[5]; in vivo,low acute and a low chronic toxicity
same,morphological internal organic changes,[5]; in vivo,does not cause any morphological internal organic changes
same,influence on normal development and growth of young animals,[5]; young animals,no adverse influence on normal development and growth of young animals
